The results in this text go back to PubChem BioAssay (NCI).

Test systems include XF 498 CNS; P388 leukemia; P388/ADR leukemia; SN12K1 renal.
Holding throughout (test): NCI tumour cell line growth inhibition, 48 h

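Following 48 hours of exposure in 96-well plates, responses at five concentrations were used to interpolate endpoints linearly. TGI marks complete inhibition of growth.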

Turning to `Cn1c2ccccc2n2c3nc4ccccc4nc3c(C#N)c12`, the TGI with XF 498 CNS was > 100 µM.

Regarding `CC(NCCS(=O)(=O)O)C(=O)O` (stereo not given), the TGI with P388 leukemia, in the assay on P388/ADR leukemia, in the assay on XF 498 CNS and with SN12K1 renal was > 100 µM in each case.
